Reference: patent US12503485B2, “Human aminosterol ENT-03 compounds, related compositions comprising the same, and methods of using the same” (Enterin, Inc., priority 2019, dated 2025)
Where two headings read alike, the source gives them in different places.

Legend:
PTPN7/LC-PTP = molecular target: T1, PTPN7/LC-PTP (Homo sapiens, UniProt P35236); assay: Phosphatase assay PTPN7/LC-PTP; format: biochemical
T1 construct: purchased Recation Biology Inc

PTPN11/SHP2 = PTPN11/SHP2 (Homo sapiens, UniProt Q06124); assay: Phosphatase assay PTPN11/SHP2; format: biochemical; details: Table 2C; read-out: Compound IC50 (M) PTPN11/SHP2
PTPN11/SHP2-FL = molecular target: T2, PTPN11/SHP2-FL (Homo sapiens, UniProt Q06124); assay: Phosphatase assay PTPN11/SHP2-FL with activating peptide; format: biochemical
T2 construct: aa 2-597, isoform 1 (canonical)); StrepII-TEV (N); His-tag (C); purchased Recation Biology Inc; host or cells: E. coli

PTPN1/PTP1B = molecular target: T3, PTPN1/PTP1B (Homo sapiens, UniProt P18031); assay: Phosphatase profiling PTPN1/PTP1B, 10-dose IC50, fluorescence; format: biochemical
T3 construct: The enzyme was the human truncated form (1-321), recombinantly produced in Escherichia coli; host or cells: Escherichia coli
T3 sequence (P18031 1-321): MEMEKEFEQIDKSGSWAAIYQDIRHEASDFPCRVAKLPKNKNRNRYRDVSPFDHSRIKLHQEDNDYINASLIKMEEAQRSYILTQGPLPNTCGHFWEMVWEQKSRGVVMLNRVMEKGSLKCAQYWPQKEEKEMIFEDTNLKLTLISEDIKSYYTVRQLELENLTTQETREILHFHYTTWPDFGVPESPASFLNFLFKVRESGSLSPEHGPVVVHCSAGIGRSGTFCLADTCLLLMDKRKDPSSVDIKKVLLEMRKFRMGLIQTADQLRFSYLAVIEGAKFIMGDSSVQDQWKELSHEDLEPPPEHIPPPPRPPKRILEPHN

[1] = test system: transcriptomes of the stomach, jejunum and ileum; format: in vivo, mice
Protocol: Young (20 week) and aged (80 week) C57bl/6 male mice were administered ENT-03 (40 mg/kg) or vehicle (water) by oral gavage daily for 2 weeks. Over this period of time clinical observations were unremarkable as were the gross and microscopic examinations of the GI tract. The transcriptomes of the stomach, jejunum and ileum were analyzed by RNAseq technology. Comparative analyses of the transcripts from untreated animals identified numerous transcripts that differed in abundance between the corresponding tissues from old and young individuals. […] Thus, within these three distinct regions of the mouse GI tract, ageing is associated with changes in the transcriptome.
Statistical analysis of RNA-sequencing data was performed using R programming language. Transcripts with less than one read count per million reads in all samples of each tissue were removed. The raw count data for the samples were then normalised using trimmed mean of M-values normalisation and transformed with voom (Law et al., 2014), resulting in log 2-transformed counts per million with associated precision weights. […] Statistical comparisons were performed using linear modelling, as implemented in the Bioconductor package limma (Ritchie et al., 2015). Significance values (p-values) were adjusted for multiple testing using Benjamini-Hochberg procedure (Benjamini et al., 1995). For each comparison (e.g. group A versus group B), a positive log 2-transformed fold change indicates up-regulation in group A relative to group B.
To investigate the overlap between contrasts, the number of overlapping differentially expressed genes (defined using adjusted p-value <0.05) between all pairwise combinations of the comparisons performed were counted. For each comparison, the Jaccard index, defined as the intersection over the union, measures the similarity between the two contrasts under consideration. The p-value was calculated using a hypergeometric test taking into account the universe size under the assumption that the contrasts and genes are independent.

[2] = test system: transcriptomes of the stomach, jejunum and ileum; format: in vivo; details: aged mice (78 weeks)
[3] = molecular target: T4, PP2A Alpha/PP2R1A Complex (Homo sapiens, UniProt P67775); assay: Phosphatase assay PP2A Alpha/PP2R1A Complex; format: biochemical
T4 construct: purchased Recation Biology Inc

PS19 mice = assay: Morris water maze, PS19 tauopathy mouse model; format: in vivo; details: 2.5 mg/kg i.p. once per week for 6 weeks, vs vehicle
hAPP-J20 mice = assay: Morris water maze, hAPP-J20 Alzheimer's mouse model; format: in vivo
[4] = Weight loss in C57bl/6 male mice, once weekly dosing; format: in vivo
Xenopus leavis tadpole = assay: In vivo activity on Xenopus tadpole in water; details: 10 μg/ml in 500 ml distilled water, about 1 hour
Protocol: To assess the activity of ENT-05 in vivo, the compound was added to 500 ml of distilled water to a concentration of 10 μg/ml. A Xenopus leavis tadpole, premetamorphic, was placed into the solution. […] A second animal was placed in 500 ml of water, containing 10 μg/ml ENT-05, but also 50 mM NaCl. In this case, the animal survived. The animal was then transferred to spring water without either salt or ENT-05 and remained active over the following days.

[5] = 2.5 mg/kg i.p. once per week for 6 weeks, vs vehicle
[6] = intraperitoneal 3, 5, 10 mg/kg once weekly over 2 weeks
[7] = intraperitoneal once weekly over 6 weeks

T4 sequence (P67775 whole entry): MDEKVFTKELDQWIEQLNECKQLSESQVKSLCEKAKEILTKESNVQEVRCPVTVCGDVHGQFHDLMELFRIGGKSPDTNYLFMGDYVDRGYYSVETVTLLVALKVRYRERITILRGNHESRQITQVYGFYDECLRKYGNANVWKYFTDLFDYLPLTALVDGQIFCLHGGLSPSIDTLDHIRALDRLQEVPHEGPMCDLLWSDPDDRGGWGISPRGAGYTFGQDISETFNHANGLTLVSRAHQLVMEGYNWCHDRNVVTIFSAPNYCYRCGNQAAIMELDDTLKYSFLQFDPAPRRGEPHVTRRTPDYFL
T4 sequence (P30153 whole entry partner): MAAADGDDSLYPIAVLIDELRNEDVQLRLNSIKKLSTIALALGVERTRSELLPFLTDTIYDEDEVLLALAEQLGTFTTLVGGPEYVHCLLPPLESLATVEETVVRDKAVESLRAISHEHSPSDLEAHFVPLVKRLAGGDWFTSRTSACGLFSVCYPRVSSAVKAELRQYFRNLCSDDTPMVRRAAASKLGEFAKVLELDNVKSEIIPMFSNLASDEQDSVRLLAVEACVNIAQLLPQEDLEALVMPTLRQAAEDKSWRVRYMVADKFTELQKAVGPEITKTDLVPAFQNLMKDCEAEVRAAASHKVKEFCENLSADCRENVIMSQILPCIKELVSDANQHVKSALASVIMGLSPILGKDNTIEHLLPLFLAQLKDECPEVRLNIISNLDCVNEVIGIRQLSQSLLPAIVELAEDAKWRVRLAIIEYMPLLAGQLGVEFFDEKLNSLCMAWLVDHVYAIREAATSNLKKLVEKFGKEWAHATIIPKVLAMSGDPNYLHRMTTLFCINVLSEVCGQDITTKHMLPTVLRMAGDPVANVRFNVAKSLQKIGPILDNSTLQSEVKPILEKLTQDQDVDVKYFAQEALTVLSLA
T1 sequence (P35236 whole entry): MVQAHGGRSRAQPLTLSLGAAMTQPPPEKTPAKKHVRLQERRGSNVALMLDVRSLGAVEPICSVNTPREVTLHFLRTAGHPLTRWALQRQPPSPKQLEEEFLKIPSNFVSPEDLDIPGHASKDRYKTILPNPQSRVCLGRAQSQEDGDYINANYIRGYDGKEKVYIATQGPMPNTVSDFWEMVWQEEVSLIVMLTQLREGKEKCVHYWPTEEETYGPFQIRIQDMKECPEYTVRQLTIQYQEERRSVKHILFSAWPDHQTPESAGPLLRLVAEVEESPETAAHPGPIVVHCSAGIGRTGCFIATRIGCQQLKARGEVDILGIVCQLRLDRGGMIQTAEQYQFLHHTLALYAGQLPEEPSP

Q: Which “activity on PTPN7/LC-PTP, in words” value (PTPN7/LC-PTP) does the source give for `CC(C)[C@@H](CC[C@@H](C)[C@H]1CC[C@H]2[C@@H]3[C@H](O)C[C@H]4C[C@@H](NCCCNCCCCNCCCN)CC[C@]4(C)[C@H]3CC[C@]12C)OS(=O)(=O)O` (single isomer, unassigned) [ENT-02, trodusquemine] here?
A: target

Q: And the IC50 (PTPN11/SHP2)?
A: 3.75e-07 M

Q: And the “activity against full length PTPN11/SHP2, in words” value (PTPN11/SHP2-FL)?
A: active

Q: What about the “% Activity” value (PTPN1/PTP1B; Conc 1.00E−04 M) of the same molecule?
A: −0.16%

Q: What about the “Slope (signal/min)” value (PTPN1/PTP1B; Conc 1.00E−04 M) of the same molecule?
A: −68 signal/min

Q: What about the “% Activity” value (PTPN1/PTP1B; Conc 1.11E−05 M) of the same molecule?
A: 0.68%

Q: And the “Slope (signal/min)” value (PTPN1/PTP1B; Conc 1.11E−05 M)?
A: 292 signal/min

Q: And the “% Activity” value (PTPN1/PTP1B; Conc 1.23E−06 M)?
A: 86.43%

Q: What about the “Slope (signal/min)” value (PTPN1/PTP1B; Conc 1.23E−06 M) of the same molecule?
A: 37260 signal/min

Q: And the “% Activity” value (PTPN1/PTP1B; Conc 1.37E−07 M)?
A: 93.11%

Q: And the “Slope (signal/min)” value (PTPN1/PTP1B; Conc 1.37E−07 M)?
A: 40137 signal/min

Q: What about the “% Activity” value (PTPN1/PTP1B; Conc 1.52E−08 M) of the same molecule?
A: 102.11%

Q: What about the “Slope (signal/min)” value (PTPN1/PTP1B; Conc 1.52E−08 M) of the same molecule?
A: 44021 signal/min

Q: What about the “% Activity” value (PTPN1/PTP1B; Conc 3.33E−05 M) of the same molecule?
A: −1.02%

Q: And the “Slope (signal/min)” value (PTPN1/PTP1B; Conc 3.33E−05 M)?
A: −440 signal/min

Q: What about the “% Activity” value (PTPN1/PTP1B; Conc 3.70E−06 M) of the same molecule?
A: 38.12%

Q: What about the “Slope (signal/min)” value (PTPN1/PTP1B; Conc 3.70E−06 M) of the same molecule?
A: 16431 signal/min

Q: And the “% Activity” value (PTPN1/PTP1B; Conc 4.12E−07 M)?
A: 92.69%

Q: What about the “Slope (signal/min)” value (PTPN1/PTP1B; Conc 4.12E−07 M) of the same molecule?
A: 39959 signal/min

Q: And the “% Activity” value (PTPN1/PTP1B; Conc 4.57E−08 M)?
A: 99.09%

Q: And the “Slope (signal/min)” value (PTPN1/PTP1B; Conc 4.57E−08 M)?
A: 42717 signal/min

Q: And the “% Activity” value (PTPN1/PTP1B; Conc 5.08E−09 M)?
A: 100.94%

Q: What about the “Slope (signal/min)” value (PTPN1/PTP1B; Conc 5.08E−09 M) of the same molecule?
A: 43513 signal/min

Q: And the HILLSLOPE (PTPN1/PTP1B; IC50 curve fit)?
A: −2.19

Q: Which results are given for `CC(CCCC(C)C1CCC2C3C(O)CC4CC(NCCCNCCCCNCCCN)CCC4(C)C3CCC12C)C(=O)O` (single isomer, unassigned; ent-03) [ENT-03, 3-β-Spermino-7α-hydroxy-5α-cholestanoic acid]?
A: number of differentially expressed genes ([1]; ileum, treated aged mice): 1162 genes; number of differentially expressed genes ([1]; ileum, treated young mice): 80 genes; genes changed significantly in response to exposure ([1]; jejunum and ileum, both young and aged mice): no more than 2 genes; number of differentially expressed genes ([1]; jejunum, treated aged mice): 382 genes; number of differentially expressed genes ([1]; jejunum, treated young mice): 42 genes; Ageing genes complemented by ENT-03 (30 most significant) Stomach ([1]; stomach, aged mice, gene named in value): shadow of prion protein; genes down-regulated in ageing overlapping with genes up-regulated by treatment ([1]; stomach, old mice, P<0.0001 hypergeometric test): 37 genes; number of differentially expressed genes ([1]; stomach, treated aged mice, 40 mg/kg oral daily 2 weeks, p(adj)<0.05): 63 genes; number of differentially expressed genes ([1]; stomach, treated young (20 week) mice, 40 mg/kg oral daily 2 weeks, p(adj)<0.05): 13 genes; ageing genes further down regulated in the ageing direction by treatment ([1]; stomach, young mice): 12 genes; clinical observations and gross and microscopic examinations of the GI tract ([1]; young and aged C57bl/6 male mice, 40 mg/kg oral gavage daily 2 weeks): unremarkable; genes increased upon treatment that decreased in expression with ageing [2]: 36 genes; activity at PP2A alpha, in words [3]: inactive; IC50 ([3]; Table 2B, read-out: Compound IC50 (M) PP2A Alpha/PP2R1A Complex): > 0.0001 M; learning during the training phase (PS19 mice): improved; memory on the probe day (PS19 mice): improved; learning during the training phase (hAPP-J20 mice; [5]): improved; memory on the probe day (hAPP-J20 mice; [5]): improved; latency to find the hidden platform during the training phase (hAPP-J20 mice; 2.5 mg/kg/wk i.p. over 6 weeks): decreased; clinical appearance of treated animals [4, 6]: clinically normal; weight loss, in words [4, 6]: dose dependent weight loss; clinical appearance of treated animals [4, 7]: clinically normal; weight loss, in words [4, 7]: dose dependent weight loss; effect on tadpole (Xenopus leavis tadpole): No similar effect
